These results are taken from US20120035187A1 (priority 2009, published 2012).

Assay [1] deals with ICR mice injected with amyloid β fragment. The experiment in a line: Passive avoidance test, mouse injected with amyloid β fragment. The assay is classed as in vivo. The conditions noted are these: for passive avoidance test (in words): mice injected with amyloid β fragment, vs amyloid β fragment alone; for Passive avoidance reaction: mouse administered with amyloid β fragment. The method, then:
One hundred of ICR mice (male, five weeks of age, body weight of 25 to 30 g, commercialized by Charles Liver Laboratories Japan Inc., Kanagawa, Japan) were randomly divided into 10 groups, each consisting 10 heads, and raised separately until the experiment was terminated. Mice, which had been anesthetized with chloral hydrate (administered into the abdominal cavity in an amount of 350 mg/kg body weight, commercialized by SIGMA Corporation, Tokyo, Japan), were fixed at their dorsal decubitis parts, incised along their medial heads, and after confirming born suture, 9 nmol/6 μl/mouse of a solution of amyloid β fragment (β-Amyloid25-35), represented by amino acid sequence of SEQ ID No.: 1, was injected into their brain ventricles by puncturing at 1.0-mm left side and 0.5-mm backside from bregmas with a depth of 3 mm (the administration method is referred to “Brain Research”, Vol. 706, pp. 181-193 (1996)). A micro syringe with an […] stainless needle (3 mm length) was used for injection. The injection site was determined by confirming the staining at right-and-left lateral ventricles of the frontal section, dorsal third ventricle, and ventral third ventricle by injecting an Evans' Blue solution (0.3 μg/0.3 μl) in place of the solution of amyloid β fragment. The scalps were sutured after injection, any one of the compounds was administered intraperitoneally once a day over 13 days, and the behavioral score was determined by the method described below.
The captioned test is the one for evaluating animals' avoidance behavior to the once experienced aversive stimulus (electric stimulus) as an index of memory. In this experiment, step-through test was selected as a passive avoidance test, which uses the nature of mouse who favors dark room. Using an apparatus having a bright room and a dark room connected via a door, a mouse was placed in the bright room, and measured a time required for moving into the dark room as an index of memory. The passive avoidance test was performed on 9 to 12 days after the injection of amyloid β fragment into the ventricle. On the 9th day after the administration, the mouse was placed in the bright room (1,000 lux, 30-cm in depth, 30-cm in width and 15-cm in height) for a minute, and then placed in the dark room (30-cm in depth, 30-cm in width and 15-cm in height) for two minutes to be acclimatized. On the 10th day after the administration, the mouse was further acclimatized similarly as above. On the 11th day after the administration, the mouse was placed in the center of the bright room, and when the mouse moved into the dark room, the door between the rooms was immediately closed and the electric stimulus (0.8 mA, for a second) was given to the mouse. After 24 hours (on the 12th day after the administration), the mouse was placed in the center of the bright room as had been placed in the previous day, and the time required for moving into the dark room was measured as a passive avoidance reaction. When the mouse memorized the aversive electric stimulus, the passive avoidance reaction was elongated.

Another assay deals with T1, human amyloid β peptide (Homo sapiens, UniProt P05067).
T1 construct: purchased AnaSpec Inc., CA, USA
T1 sequence (P05067 672-711): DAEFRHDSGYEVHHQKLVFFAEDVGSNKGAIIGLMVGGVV
As to the kind of experiment: Agglutination of amyloid β peptide, thioflavine T method. The settings on record: 45 μl of 200 nM test sample solution + 15 μl amyloid β peptide solution, 37° C., six days, thioflavine T fluorescence; for inhibition at 0.2 µM: read-out: Inhibition rate (%) of agglutination of amyloid β peptide. The assay is classed as biochemical. The method, then: The filtrate was made into a test sample solution by adjusting the concentration to 200 nM using Tris-HCl buffer.
The agglutination of amyloid β peptide was measured by a method using thioflavine T (see Hilal A. Lashuel et al., Journal of Biological Chemistry, Vol. 277, No. 45, pp. 42881-42890 (2002)). Thioflavine T binds to […] structure of agglutinated amyloid β peptide and produces fluorescence. The amount of the fluorescence was determined using a fluorometric plate reader and used as an index of the agglutination of amyloid β peptide. When the agglutination of amyloid β peptide is inhibited by the test sample, fluorescence of Thioflavine T is decreased. The effects of the test samples on the agglutination of amyloid β peptide were investigated by the method. A human amyloid β peptide, having the amino acid sequence of SEQ ID NO:2 consisting of 40 amino acids, commercialized by AnaSpec Inc., CA, USA, was dissolved in sterilized distilled water to give a concentration of 400 μM for use. Test samples were diluted with Tris-HCl buffer. In a reaction vessel, 15 μl of […] admixed with 45 μl of a 200 nM test sample solution and allowed to react at 37° C. for six days. After the reaction, 50 μl of the reaction mixture was withdrawn, admixed with 450 μl of a 10 μM Thioflavine T solution, and after 30 minutes, the resulting fluorescence was measured using a fluorometer (excitation wavelength: 450 nm, […]: 482 nm). The fluorescent intensity of Thioflavine T only was regarded as 0%, and that of the solution, prepared by mixing 15 μl of a […] amyloid β peptide solution and 45 μl of Tris-HCl buffer and allowing to react at 37° C. for six days, was regarded as 100%. Inhibition rate (%) of the agglutination of amyloid β peptide was determined by the steps of measuring the relative fluorescence intensity in the case of using each test sample solution for the reaction, and subtracting the measured value from 100%.

Setting [2] is: 50 μg/kg body weight i.p. once a day.
[3] abbreviates: 500 μg/kg body weight i.p. once a day.

As for `CCN1C=CC(=CC=C(C=Cc2cc[n+](CC)c3ccccc23)c2cc[n+](CC)c3ccccc23)c2ccccc21.[I-].[I-]` [NK-4], the “passive avoidance test (in words)” value in assay [1] (setting [2]) and in assay [1] (setting [3]) was “significant improvement” each time. Further, the “Passive avoidance reaction” value is 135 ± 24 s in assay [1] (dose 50 μg/kg body weight) and 164 ± 16 s in assay [1] (dose 500 μg/kg body weight). In addition, on human amyloid β peptide, the “Inhibition rate (%) of agglutination of amyloid β peptide” value stood at 73%.

Regarding `CCCCN1C=C/C(=C/C=C(/C=C/c2cc[n+](CCCC)c3ccccc23)c2cc[n+](CCCC)c3ccccc23)c2ccccc21` [NK-26], the “passive avoidance test (in words)” value in assay [1] (setting [2]) and in assay [1] (setting [3]) was “significant improvement” each time. Also, the “Passive avoidance reaction” value amounted to 84 ± 25 s in assay [1] (dose 5 μg/kg body weight), 160 ± 14 s in assay [1] (dose 50 μg/kg body weight) and 144 ± 13 s in assay [1] (dose 500 μg/kg body weight).

`CCN1/C(=C/C=C(/C=C/c2sc3ccccc3[n+]2CC)c2sc3ccccc3[n+]2CC)Sc2ccccc21.[I-].[I-]` [NK-100]: the inhibition at 0.2 µM on human amyloid β peptide was 99%.

As to `CCCN1C=CC(=CC=C(C=Cc2cc[n+](CCC)c3ccccc23)c2cc[n+](CCC)c3ccccc23)c2ccccc21.[I-].[I-]` [NK-234], the “passive avoidance test (in words)” value in assay [1] (setting [3]) was “significant improvement”. Besides, the “Passive avoidance reaction” value in assay [1] (dose 500 μg/kg body weight) worked out at 166 ± 8 s.

Turning to `CC[n+]1ccccc1/C=C/c1ccc(N(C)C)cc1` [NK-557], the inhibition at 0.2 µM on human amyloid β peptide was 95%.

By inhibition is commonly meant the relative decrease from the control value, in per cent.
